Results: a melting point compilation (Tetko et al.; mined from patent text by program, amines drawn as free bases though some values may be those of a salt)
Non-standard residues stand in square brackets, D forms with d. Residues, ends and D or L forms follow the SMILES beside them. *: point of attachment. Leu(ol) = CC(C)C[C@H](N)CO; Cbz = O=C(OCc1ccccc1)*

`O=C(Nc1cccc(S(=O)(=O)C(F)(F)F)c1)c1c(O)ccc2ccccc12` gave a melting point of 179 to 180 °C. In the case of `CC(C)c1ccc(Nc2ccccc2[N+](=O)[O-])c(C#N)c1`, the melting point is reported as 91 to 96 °C. With `COC(=O)CS(=O)(=O)Cc1cnc(OC)c([N+](=O)[O-])c1` the melting point was 137 to 140 °C. In the case of `NC(=O)c1cccc(-c2ccc(F)c3cc(Cc4cc(F)cc(Cl)c4)sc23)c1`, the melting point is reported as 168 to 169 °C. With `COc1ccc(C(=O)Nc2ccc(C)c(NC(=O)c3cccc(N(C)C)c3)c2)cc1OC` the melting point was 204 to 205 °C. Work on `CC(=O)Nc1nc2ccc(S(=O)(=O)n3c(CCCC(=O)O)cc4cc(Cl)ccc43)cc2s1` yielded a melting point of over 250 °C. `CC(C)c1nc2ccccc2cc1S(=O)(=O)c1ccc(O)cc1` gave a melting point of 185 °C. Compound `Cc1cc(N)n(-c2ccc(Cl)c(Cl)c2)n1` has a melting point of 110 to 112 °C. `CC1(CN2CCN(C(=O)NCC=Cc3ccc(C(F)(F)F)cc3)CC2)Cn2cc([N+](=O)[O-])nc2O1` (stereo unspecified) showed a melting point of 105 to 107 °C. With `O=Cc1c(O)c(Cl)cc(Cl)c1OCCCCC(=O)O` the melting point was 85 to 87 °C. `CNC(=O)c1cccc(NC(=O)COc2cccc3ccccc23)c1` showed a melting point of 194 °C. With `CCOC(=O)C(=CNC1CC1)C(=O)c1cc(F)c(F)c(C)c1F` the melting point was 73 to 75 °C. With `CCCOc1ccc(S(=O)(=O)NC)cc1C1=NC(=O)C2=NC=NC2=N1` the melting point was 245 to 246 °C. In the case of `CCn1cc(C(=O)O)c(=O)c2cc(F)c(N3CCNC(COC(C)C)C3)cc21` (stereo unspecified), the melting point is reported as 144 to 146 °C. Compound `O=C(O)c1ccc(S(F)(F)(F)(F)F)cc1[N+](=O)[O-]` has a melting point of 165 to 167 °C. Compound `CCOC(=O)c1ccc2cncc(I)c2n1` has a melting point of 135 to 137 °C. For `CC(C)(C)OC(=O)Nc1ccc(C(=O)O)c2ccccc12`, the melting point was 194 to 195 °C. `COc1cccc(C(C[N+](=O)[O-])C2CCCCC2=O)c1` (racemic) gave a melting point of 125 to 126 °C. `COCC(=O)N1CCc2cc(S(=O)(=O)N3CCN(c4cccc(Cl)c4)CC3)ccc21` gave a melting point of 230 °C. In the case of `CCOC(=O)C(=NO)c1ccc(Oc2ccccc2)cc1`, the melting point is reported as 131 to 132 °C. `CC(C)c1nsc(N=C(Cl)N(C)C)c1C#N` gave a melting point of 72 to 75 °C. In the case of `Nc1cc(C(c2cc(F)ccc2F)S(=O)(=O)c2ccc(Cl)cc2)c(Br)cn1` (stereo unspecified), the melting point is reported as 204 to 206 °C. Work on `CC(Oc1ncn(-c2ccc(OC(F)(F)F)cc2)n1)C(=O)O` (stereo unspecified) yielded a melting point of 200 to 203 °C. For `CCOC(=O)C(C(=O)CC)C(=O)OCC`, the melting point was 89 to 93 °C. For `Cc1ccc(S(=O)(=O)NC2CCCC2NC(=O)OC(C)(C)C)cc1` (stereo unspecified), the melting point was 129 to 130 °C. For `O=S(c1ccc2c(c1)C(=C1CCN(CC3CC3)CC1)c1ccccc1C=C2)C(F)(F)F` (stereo unspecified), the melting point was 146 to 148 °C. Compound `O=S(=O)(c1c(Br)c(Br)n(CCl)c1-c1ccc(Cl)cc1)C(F)(F)F` has a melting point of 153 to 156 °C. For `CNC(=O)c1cccc(NC(=O)Cc2cc(OC)cc(OC)c2)c1`, the melting point was 146 to 147 °C. In the case of `COc1cc2c(cc1OC)-c1cc3cc(O)ccc3n1C2=O`, the melting point is reported as over 260 °C. `COc1ccc(Cl)cc1-c1[nH]c2cccc3c2c1CCNC3=O` gave a melting point of 160 to 162 °C. With `CSc1cc(C(=O)O)cc([N+](=O)[O-])c1C(=O)c1ccccc1` the melting point was 210 to 213 °C. Compound `CS(=O)(=O)Nn1c(=O)[nH]c2cc(C(F)(F)F)c(-c3cccc(C#N)c3)cc2c1=O` has a melting point of 291 to 292 °C. `CCCc1nn(-c2ccc(C(F)(F)F)cn2)cc1CCCOc1cccc(CC(=O)O)c1F` showed a melting point of 109 to 110 °C. In the case of `CCOC(=O)NN(C)c1cc(C)c(-c2cccc([N+](=O)[O-])c2)nn1`, the melting point is reported as 142 to 144 °C. Work on `COc1ccc(-n2nc(Sc3ccc(Cl)cc3)c(C)c(C#N)c2=O)cc1` yielded a melting point of 146 to 148 °C. For `c1ccc(CCNc2cc(-n3cccn3)nc(-c3cccs3)n2)nc1`, the melting point was 159 to 160 °C. Work on `CC(C)(C)c1cc(CO)n(Cc2ccc(C(F)(F)F)cc2Cl)n1` yielded a melting point of 115 to 117 °C. `c1ccc2c(c1)nc(Nc1ccc3cn[nH]c3c1)c1nc(C3CCCC3)[nH]c12` showed a melting point of 235 to 236 °C. `COc1cc(C(=O)NS(=O)(=O)c2ccccc2Cl)ccc1Cc1cn(C)c2ccc(CCNC(=O)N(C)C)cc12` showed a melting point of 208 to 211 °C. Compound `O=C(O)c1sc(-c2cccnc2)nc1Cl` has a melting point of 238 to 251 °C. Work on `N#CC(c1ccccc1)N1CCN(C2CCCCC2)CC1` (stereo unspecified) yielded a melting point of 79 to 81 °C. In the case of `CC(=O)C=Cc1c(-c2ccccc2)nn2ccccc12`, the melting point is reported as 134 to 136 °C. Work on `CC(=O)NC[C@H]1CN(c2ccc(C(=O)c3cnc4c([N+](=O)[O-])cccn34)cc2)C(=O)O1` yielded a melting point of 229 to 230 °C. `C(=C\c1nc2ccccc2n1-c1ccncc1)/c1ccccc1` showed a melting point of 168 to 169 °C. For `Cc1ccc2c(c1)C1(COc3cc4c(cc31)OCO4)C(=O)N2` (stereo unspecified), the melting point was 269 to 271 °C. `O=C(NC(=S)NC1CCN(CCc2c[nH]c3ccccc23)CC1)c1ccccc1` showed a melting point of 212 to 215 °C. For `Cc1ccc([N+](=O)[O-])cc1Nc1nccc(-c2cccnc2)n1`, the melting point was 186 to 188 °C. `COC(=O)c1cc(Br)c2cc(Cc3ccc(F)cc3)cnc2c1O` showed a melting point of 152 °C. `CCOc1nn(Cc2ccc(OCc3nc(-c4ccccc4)oc3C)c(OC)c2)cc1CCC(=O)O` gave a melting point of 122 to 123 °C. For `C=CC1CC1(C(=O)OC)C(=O)OCc1ccco1` (stereo unspecified), the melting point was 67.5 to 68.5 °C. With `COC(=O)c1c(O)cc(C(F)(F)F)nc1C(F)(F)F` the melting point was 62 to 75 °C. In the case of `Clc1ccc2c(c1)CNc1ccccc1O2`, the melting point is reported as 123 to 125 °C. `Cc1oc(-c2ccccc2)nc1COc1ccc(C=C2SC(=O)NC2=O)cc1` showed a melting point of 225 to 226 °C. Compound `COCCc1nc2c(N)nc3ccccc3c2n1CCOCCNS(C)(=O)=O` has a melting point of 114 to 117 °C. In the case of `COC(=O)CCC(=O)c1ccc(NS(C)(=O)=O)cc1`, the melting point is reported as 181 to 183 °C. `COC(=O)C1=Cc2ccccc2N(C)CCC1` gave a melting point of 80 to 82 °C. Work on `CC(=O)N1CCC(=O)C(C(c2ccc(F)cc2)c2ccc(F)cc2)C1` (stereo unspecified) yielded a melting point of 146 to 147 °C. In the case of `C=C1Cc2c(n(-c3ccccc3)c3ncccc3c2=O)O1`, the melting point is reported as 259 to 261 °C. Compound `O=C(O)Cc1ccc(Br)cc1C(=O)O` has a melting point of 210 to 213 °C. In the case of `COc1ccc2c(c1)/C(=C/C#N)C(c1ccccc1)C2` (stereo unspecified), the melting point is reported as 112 to 114 °C. Compound `CC(C)C[C@@H](CO)NC(=O)[C@H](Cc1c[nH]cn1)NC(=O)[C@H](Cc1ccccc1)NC(=O)OCc1ccccc1` (Cbz-Phe-His-[Leu(ol)]) has a melting point of 181 to 183 °C. `O=C1CCC(N2C(=O)c3cccc(CNC(=O)c4ccccc4)c3C2=O)C(=O)N1` (stereo unspecified) showed a melting point of 227 to 229 °C. `COC(=O)COc1cccnc1Br` gave a melting point of 63 to 64 °C. With `CC(C)=CCC(CC=C(C)C)(C(=O)NO)S(=O)(=O)c1ccc(C)cc1` the melting point was 108 to 110 °C. With `CC(=CN(C)C)C(=O)c1ccc(Cl)cc1` the melting point was 45 to 47 °C. Compound `Nc1ncc2c(n1)CCC(=O)C2` has a melting point of 214 to 217 °C. For `CC(C)C(=O)NCCO`, the melting point was 54 to 57 °C. Work on `O=C(O)Cn1cc(C(=O)O)c(=O)c2cccc(Br)c(=O)c21` yielded a melting point of 173 to 175 °C. For `COCCOc1cc([N+](=O)[O-])c2[nH]c(C3=NCC(C(OC)OC)S3)cc2c1` (stereo unspecified), the melting point was 100 to 101 °C. Compound `CC[C@H](N)C(=O)N1CCC[C@H]1C(=O)NCCCSC` has a melting point of 120 to 121 °C. With `CCCn1cc(Cc2ccc(C(=O)OC)cc2OC)c2cc(C=CCC(=O)N(C)C)ccc21` the melting point was 122 to 124 °C. Work on `CCCCCCCNC(=O)N(C)c1ncc(-c2ccc(C[C@H](OCC)C(=O)O)cc2)s1` yielded a melting point of 97 °C. `CC(=O)N1CC[C@H](Oc2ccc(C=Cc3cc4cc(C#N)ccc4o3)cc2O)C1` gave a melting point of 191 to 193 °C. In the case of `CCSC1=C(C#N)C(c2ccccc2)(c2ccccc2)C(=O)N1CCCBr`, the melting point is reported as 97 °C. Compound `CC(=O)OC(CF)c1cccnc1S(N)(=O)=O` (stereo unspecified) has a melting point of 127 to 129 °C. For `COC(=O)c1c(N)[nH]c2ccccc12`, the melting point was 136 °C. Work on `Cc1nc(N(C)c2cc(Cl)cc(Cl)c2)sc1-c1ccnc(Nc2ccc(N3CCOCC3)cc2)n1` yielded a melting point of 216 to 218 °C. Work on `O=C(O)CCc1ccc(CCNS(=O)(=O)c2ccc(Cl)cc2)s1` yielded a melting point of 127 to 130 °C. With `COC(=O)CCCCNC(=O)C(COS(C)(=O)=O)NS(=O)(=O)c1ccc(Cl)cc1` (racemic) the melting point was 95 to 97 °C. With `NCC1Cc2cc(-c3cccc(Cl)c3)cc(F)c2O1` (stereo unspecified) the melting point was over 250 °C. `Cn1cc(OS(C)(=O)=O)c(=O)c2ccc(S(C)(=O)=O)cc21` gave a melting point of 258 to 260 °C. Compound `OCCCCCNc1nccc2cc3c(cc12)OCO3` has a melting point of 132 to 134 °C. Compound `CN(CCOc1ccc(C=C2SC(=O)NC2=O)cc1)c1nc2ccccc2s1` has a melting point of 219 °C. For `NC(=O)[C@H](O)[C@@H](O)[C@H](O)[C@H](O)CO`, the melting point was 109 to 111 °C. Work on `O=Cc1ccc(-c2ccc(O)cc2)c2ccsc12` yielded a melting point of 203 to 204 °C. Work on `CN(C)CCOc1ccc(C#N)cn1` yielded a melting point of 58 °C. In the case of `Cc1cc(-c2cc(C(F)F)n3ncc(C(=O)Nc4cccc(S(N)(=O)=O)c4)c3n2)ccc1Cl`, the melting point is reported as 264 °C. With `CCOC(=O)C(=O)Nc1nc(CN2CCN(C(c3ccccc3)c3ccccc3)CC2)c(Cl)s1` the melting point was 154 to 156 °C. Compound `CCN(CC)c1ccc(C(=O)c2c(Cl)c(Cl)c(Cl)c(Cl)c2C(=O)O)c(C)c1` has a melting point of 179 to 181 °C. Compound `Cc1cc(C)c(Nc2nc(C)ncc2S(=O)(=O)c2ccc(NCc3ccccc3)cc2)c(C)c1` has a melting point of 200 to 202 °C. Work on `Cc1cccc(CC(=O)O)c1OCCCc1cn(-c2ccc(Br)cn2)nc1C(C)(C)C` yielded a melting point of 62 to 63 °C. With `CCC(=O)c1ccc(Cl)c2nc3n(c12)CCCN3c1ccc(Cl)cc1Cl` the melting point was 156 to 157 °C. In the case of `CC(C)(C)OC(=O)N1CCN(Cc2ccccc2)C(=O)C1`, the melting point is reported as 89 to 90 °C. `CS(=O)(=O)c1ccc2ccc(C(=O)O)cc2c1` showed a melting point of 273 to 274 °C. In the case of `C=CCC(NC(=O)C(CCCCN)NC(=O)Cc1cn(CC=C)c2ccccc12)C(=O)OC` (stereo unspecified), the melting point is reported as 103 to 106 °C. For `COCCOC(=O)C1=C(C)NC(C)=C(C(=O)OC(C)C)C1c1ccsc1Cl` (stereo unspecified), the melting point was 123 to 124 °C. Compound `N#CC(N)c1ccc(F)cc1` (stereo unspecified) has a melting point of 77.9 °C. For `O=C(Cc1ccc(F)cc1)c1c(O)c2cccnc2n(-c2ccccc2)c1=O`, the melting point was 185 to 187 °C. `Cc1ccc(-n2c(-c3ccccc3)cc(Br)c2-c2ccccc2)cc1` gave a melting point of 201 to 202 °C. In the case of `CC(=O)OC(C)c1nc2c(C(F)(F)F)cccc2c(O)c1C(=O)Nc1nccs1` (stereo unspecified), the melting point is reported as 262 °C. In the case of `Cc1c(CO)c2c(c(C)c1NC(=O)NC(C)(C)C)C(c1ccc(C(C)C)cc1)CO2` (single isomer, unassigned; (+)), the melting point is reported as 187 to 188 °C.
